Literature values in patent publication US10058616B2, “Pharmaceutical compositions to reduce complications of ocular steroid” (TAIWAN LIPOSOME COMPANY, LTD., priority 2012, dated 2018).
Where two headings read alike, the source gives them in different places.

Row | Molecule | progression of cataract, patients (patients; after intravitreal steroid injection) [%] | incidence of increased IOP after intravitreal steroid injection (patients; at 3 months) [%] | incidence of increased IOP after intravitreal steroid injection (patients; at 6 months) [%] | incidence of increased IOP after intravitreal steroid injection (patients; at one month) [%] | half-life in the vitreous humor
1 | CC1(C)O[C@@H]2C[C@H]3[C@@H]4CCC5=CC(=O)C=C[C@]5(C)[C@@]4(F)[C@@H](O)C[C@]3(C)[C@]2(C(=O)CO)O1 [triamcinolone acetonide] | 22.72 | 75 | 47.05 | 57.69 | –
2 | dexamethasone sodium phosphate [Non-associated DSP] | – | – | – | – | about 3.5 hours
